Measured values from ChEMBL document CHEMBL1201862, “PubChem BioAssay data set” (2004).
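Each compound was tested at five concentrations against cells in 96-well plates for 48 hours. GI50 = concentration required for 50% inhibition of growth.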 Activity calls are given as the source filed them. Rule as the data show it: active = GI50 up to about 1.1 µM and inactive = higher.

Assays:
Experiment in all cases: NCI anticancer screen, dose series, 48 h
[1] = test system: HOP-62
[2] = test system: MDA-MB-435
[3] = test system: KM12
[4] = test system: SNB-75
[5] = test system: T47D
[6] = test system: MDA-MB-231
[7] = test system: SF-268
[8] = test system: NCI-H23
[9] = test system: HOP-92
[10] = test system: HCT-15
[11] = test system: NCI-H460
[12] = test system: SK-MEL-5
[13] = test system: HT-29
[14] = test system: U-251
[15] = test system: SK-MEL-28
[16] = test system: OVCAR-3
[17] = test system: M14
[18] = test system: K562
[19] = test system: RXF 393

For O=C(O)COc1cc(-c2ccccc2)nc2cc(F)ccc12, the GI50 [1] was > 100 µM (inactive), the GI50 [2] was > 100 µM (inactive) and the GI50 [3] was > 100 µM (inactive). The GI50 [4] was > 100 µM (inactive), the GI50 [5] was > 100 µM (inactive) and the GI50 [6] was > 100 µM (inactive). For the same compound, the GI50 [7] was > 100 µM (inactive), the GI50 [8] was > 100 µM (inactive) and the GI50 [9] was > 100 µM (inactive). For the same compound, the GI50 [10] was greater than 100 µM, the GI50 [11] was > 100 µM (inactive) and the GI50 [12] was > 100 µM (inactive). For the same compound, the GI50 [13] was > 100 µM (inactive), the GI50 [14] was > 100 µM (inactive) and the GI50 [15] was > 100 µM (inactive). The GI50 [16] was > 100 µM (inactive), the GI50 [17] was > 100 µM (inactive) and the GI50 [18] was > 100 µM (inactive).

With CS(=O)(=O)Nc1ccc(Nc2ccnc3ccc4[nH]ccc4c23)cc1 the GI50 [1] was 13.9 µM (inactive), the GI50 [2] was 15.1 µM (inactive) and the GI50 [3] was 11.6 µM (inactive). For the same compound, the GI50 [5] was 3.77 µM (inactive), the GI50 [6] was 8.93 µM (inactive) and the GI50 [7] was 5.13 µM (inactive). The GI50 [8] was 16.3 µM (inactive), the GI50 [9] was 8.36 µM (inactive) and the GI50 [10] was 46 µM. For the same compound, the GI50 [11] was 15.2 µM (inactive), the GI50 [12] was 11.7 µM (inactive) and the GI50 [13] was 18.4 µM (inactive). For the same compound, the GI50 [14] was 9.93 µM (inactive), the GI50 [19] was 14 µM (inactive) and the GI50 [15] was 15.8 µM (inactive). The GI50 [16] was 10.3 µM (inactive), the GI50 [17] was 16.1 µM (inactive) and the GI50 [18] was 6.64 µM (inactive).

For CN(C)/C=C(\C(=O)c1ccccc1)n1nc(-c2ccccc2)cc1-c1ccccc1, the GI50 [1] was > 10 µM (inactive), the GI50 [2] was > 10 µM (inactive) and the GI50 [3] was > 10 µM (inactive). For the same compound, the GI50 [5] was > 10 µM (inactive), the GI50 [6] was > 10 µM (inactive) and the GI50 [7] was > 10 µM (inactive). For the same compound, the GI50 [8] was > 10 µM (inactive), the GI50 [9] was 7.38 µM (inactive) and the GI50 [10] was greater than 10 µM. For the same compound, the GI50 [11] was > 10 µM (inactive), the GI50 [12] was > 10 µM (inactive) and the GI50 [13] was > 10 µM (inactive). The GI50 [14] was > 10 µM (inactive), the GI50 [19] was > 10 µM (inactive) and the GI50 [15] was > 10 µM (inactive). The GI50 [16] was > 10 µM (inactive) and the GI50 [17] was > 10 µM (inactive).

With O=C1C(Cl)=C(NCCN2CCOCC2)C(=O)c2c(O)ccc(O)c21 the GI50 [1] was 1.92 µM (inactive), the GI50 [2] was 1.64 µM (inactive) and the GI50 [3] was 3.23 µM (inactive). For the same compound, the GI50 [4] was 1.71 µM (inactive), the GI50 [5] was 1.99 µM (inactive) and the GI50 [6] was 2.39 µM (inactive). For the same compound, the GI50 [7] was 2.28 µM (inactive), the GI50 [8] was 1 µM (active) and the GI50 [9] was 2.69 µM (inactive). For the same compound, the GI50 [10] was 1.72 µM, the GI50 [11] was 1.58 µM (inactive) and the GI50 [12] was 1.09 µM (active). For the same compound, the GI50 [13] was 2.03 µM (inactive), the GI50 [14] was 2.21 µM (inactive) and the GI50 [15] was 1.48 µM (inactive). For the same compound, the GI50 [16] was 2.49 µM (inactive), the GI50 [17] was 1.84 µM (inactive) and the GI50 [18] was 2.06 µM (inactive).

C[C@@H]1CC[C@@]2(OC1)O[C@H]1[C@@H](O)[C@H]3[C@@H]4CC[C@H]5C[C@@H](O[C@@H]6O[C@H](CO)[C@H](O[C@@H]7O[C@H](CO)C(O)[C@H](O[C@@H]8OC[C@@H](O)[C@H](O)[C@H]8O)[C@H]7O[C@@H]7O[C@H](CO)[C@H](O)[C@H](O[C@@H]8O[C@H](CO)[C@@H](O)[C@H](O)[C@H]8O)[C@H]7O)[C@H](O)[C@H]6O)[C@H](O)C[C@]5(C)[C@H]4CC[C@]3(C)[C@H]1[C@@H]2C (some centres not stated) [DIGITONIN] was tested, and the GI50 [1] was 2.37 µM (inactive), the GI50 [2] was 11.2 µM (inactive) and the GI50 [3] was 2.12 µM (inactive). The GI50 [4] was 2.83 µM (inactive), the GI50 [5] was 3 µM (inactive) and the GI50 [6] was 2.48 µM (inactive). For the same compound, the GI50 [7] was 2.09 µM (inactive), the GI50 [8] was 2.26 µM (inactive) and the GI50 [9] was 4.74 µM (inactive). For the same compound, the GI50 [10] was 4.03 µM, the GI50 [11] was 1.94 µM (inactive) and the GI50 [12] was 4.5 µM (inactive). The GI50 [13] was 3.51 µM (inactive), the GI50 [14] was 3.43 µM (inactive) and the GI50 [15] was 2.61 µM (inactive). The GI50 [16] was 1.55 µM (inactive), the GI50 [17] was 12.4 µM (inactive) and the GI50 [18] was 3.08 µM (inactive).

With Cc1c2ccccc2c(C)n2c1nc1cc3ccccc3cc12 the GI50 [1] was 1.34 µM (inactive), the GI50 [2] was 1.61 µM (inactive) and the GI50 [3] was 1.32 µM (inactive). For the same compound, the GI50 [4] was 1.57 µM (inactive), the GI50 [5] was 6.44 µM (inactive) and the GI50 [6] was 1.36 µM (inactive). For the same compound, the GI50 [7] was 1.34 µM (inactive), the GI50 [8] was 1.29 µM (inactive) and the GI50 [9] was 0.00215 µM (active). The GI50 [10] was 1.36 µM, the GI50 [11] was 1.05 µM (active) and the GI50 [12] was 1.94 µM (inactive). The GI50 [13] was 0.647 µM (active), the GI50 [14] was 1.65 µM (inactive) and the GI50 [15] was 1.46 µM (inactive). The GI50 [16] was 0.968 µM (active), the GI50 [17] was 1.38 µM (inactive) and the GI50 [18] was 2.91 µM (inactive).
